Measured values as given in US20240398813A1, “PHARMACEUTICAL COMPOSITION FOR PREVENTING OR TREATING OVERACTIVE BLADDER” (GWANGJU INSTITUTE OF SCIENCE AND TECHNOLOGY, priority 2021, published 2024).
Where “and” joins values, the source holds several entries; their conditions need not be identical. Identical values can stand only once.

Biological target: T1, hyperactive mutant BKCa channels (hSlo G803D/N806K) stably expressed in AD 293 cells (Homo sapiens, UniProt Q12791, G856D/N859K)
T1 construct: expressed in transfected cells
T1 sequence (Q12791 whole entry G856D/N859K): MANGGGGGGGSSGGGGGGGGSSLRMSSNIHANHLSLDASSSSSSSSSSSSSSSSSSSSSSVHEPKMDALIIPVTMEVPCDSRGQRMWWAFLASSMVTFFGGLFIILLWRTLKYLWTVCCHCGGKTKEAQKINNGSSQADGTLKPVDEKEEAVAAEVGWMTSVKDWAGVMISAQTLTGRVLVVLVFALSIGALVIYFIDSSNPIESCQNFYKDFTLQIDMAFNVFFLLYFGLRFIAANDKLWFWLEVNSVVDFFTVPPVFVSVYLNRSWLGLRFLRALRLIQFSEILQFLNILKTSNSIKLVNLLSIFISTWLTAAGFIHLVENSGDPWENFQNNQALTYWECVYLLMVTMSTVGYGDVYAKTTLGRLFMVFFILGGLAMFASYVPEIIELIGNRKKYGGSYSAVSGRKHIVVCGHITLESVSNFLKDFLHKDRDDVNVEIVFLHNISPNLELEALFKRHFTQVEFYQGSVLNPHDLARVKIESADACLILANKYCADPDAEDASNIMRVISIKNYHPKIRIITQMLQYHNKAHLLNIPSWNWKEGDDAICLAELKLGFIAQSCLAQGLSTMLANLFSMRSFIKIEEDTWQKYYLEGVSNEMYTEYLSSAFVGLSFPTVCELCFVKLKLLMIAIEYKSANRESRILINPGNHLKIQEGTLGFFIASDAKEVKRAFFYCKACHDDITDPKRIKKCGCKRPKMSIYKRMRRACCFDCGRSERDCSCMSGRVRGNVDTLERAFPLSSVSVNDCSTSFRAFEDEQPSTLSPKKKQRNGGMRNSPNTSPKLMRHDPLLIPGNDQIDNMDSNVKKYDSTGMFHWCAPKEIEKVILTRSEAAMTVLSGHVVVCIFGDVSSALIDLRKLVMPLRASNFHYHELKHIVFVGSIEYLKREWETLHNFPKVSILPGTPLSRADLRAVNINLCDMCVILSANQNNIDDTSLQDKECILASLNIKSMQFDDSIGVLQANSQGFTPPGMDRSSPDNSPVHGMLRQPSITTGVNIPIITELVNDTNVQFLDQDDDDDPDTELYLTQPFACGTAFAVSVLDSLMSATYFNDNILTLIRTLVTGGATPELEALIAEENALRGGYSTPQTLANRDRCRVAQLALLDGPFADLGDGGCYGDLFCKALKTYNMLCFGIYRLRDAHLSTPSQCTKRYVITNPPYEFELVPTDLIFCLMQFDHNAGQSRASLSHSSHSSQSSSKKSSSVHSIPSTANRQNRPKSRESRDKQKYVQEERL
Assay: Cell-based fluorescence assay (FluxOR Potassium Ion Channel Assay) of BKCa channel activation
Set-up: key to Channel activity increase for 80 s (ΔRFU) at 6 μM: ratio of ΔRFU (RFU at 100 s − 20 s) to the same ΔRFU for vehicle
Conditions: for Initial velocity of channel activation for 4 s (vi) at 6 μM: first 4 s after channel stimulation; for Channel activity increase for 80 s (ΔRFU) at 6 μM: normalized by vehicle; for EC50: fit of dose-response curve of initial rates, read-out: Apparent EC50 based on vi; for activation effect on the BKCa channels at a single concentration: 3 μM
Procedure: AD 293 cells, which are derivatives of the commonly used HEK 293 cell line and stably express hyperactive mutant BKCa channels (hSlo G803D/N806K) to sensitively detect the effect (Lee et al., 2013), were cultured in Dulbecco' modified Eagle medium (Hyclone, Logan, Utah, […]) supplemented with 10% fetal bovine serum, and selected with 1 mg/mL Geneticin (Gibco, Amarillo, TX, USA). 20,000 cells per well were seeded on a 96-well clear-bottom black plate (Corning, New York, NY, USA) coated with poly-D-lysine (Gibco). BKCa channel activity was measured using the cell-based fluorescence assay, FluxOR Potassium Ion Channel Assay (Thermo Fisher Scientific, Waltham, MA, USA). Experimental procedures were performed according to the manufacturer's instructions. The cells were treated with test compounds dissolved in assay buffer for 15 minutes. Fluorescence was measured using a FlexStation3 multimode microplate reader (Molecular Devices, Silicon Valley, CA, USA) and SoftMax Pro (Molecular Devices). Excitation and emission wavelengths were set to 485 nm and 528 nm, respectively. Fluorescence signals were acquired every 2 seconds for 120 seconds and normalized by the relative fluorescence unit (RFU). The efficacy of a channel activator was determined by analyzing changes (ΔRFU) in the RFU for 80 seconds after channel stimulation.
Activation effects of the synthesized compounds on BKCa channels were evaluated using cell-based fluorescence assay. NS11021 was used as the positive control. The effects were determined based on the initial rate (vi) of channel activation and the apparent EC50 value obtained from fitting data of the dose-response curve. Here, Vi means change values for 4 seconds at the start of channel opening (vi={RFU(t=24 s)−RFU(t=20 s)}/4 s). […]

Row | SMILES | Initial velocity of channel activation for 4 s (vi) at 6 μM [s⁻¹] | Channel activity increase for 80 s (ΔRFU) at 6 μM | EC50 | BKCa activity | activation effect on the BKCa channels at a single concentration
1 | O=C(O)c1sc(=S)n2c1[nH]c(=O)c1ccccc12 [Compound 3, 5-oxo-1-thioxo-4,5-dihydro-1H-thiazolo[3,4-a]quinazoline-3-carboxylic acid] | 0.38 | 1.38 | 12.7 µM |  | 
2 | NC(=O)c1sc(=S)n2c1[nH]c(=O)c1ccccc12 [Compound 4, 5-oxo-1-thioxo-4,5-dihydro-1H-thiazolo[3,4-a]quinazoline-3-carboxamide] | 0.32 | 0.96 |  |  | 
3 | O=C(NCc1ccccc1)c1sc(=S)n2c1[nH]c(=O)c1ccccc12 [Compound 5, N-benzyl-5-oxo-1-thioxo-4,5-dihydro-1H-thiazolo[3,4-a]quinazoline-3-carboxamide] | 0.26 | 1.10 |  |  | 
4 | O=C(Nc1ccccc1)c1sc(=S)n2c1[nH]c(=O)c1ccccc12 [Compound 101, 5-oxo-N-phenyl-1-thioxo-4,5-dihydro-1H-thiazolo[3,4-a]quinazoline-3-carboxamide] | 0.42 | 1.03 |  |  | 
5 | Cc1ccc2c(=O)[nH]c3c(C(=O)Nc4ccccc4)sc(=S)n3c2c1 [Compound 102, 8-methyl-5-oxo-N-phenyl-1-thioxo-4,5-dihydro-1H-thiazolo[3,4-a]quinazoline-3-carboxamide] | 0.23 | 1.06 |  |  | 
6 | O=C(Nc1ccccc1)c1sc(=S)n2c1[nH]c(=O)c1ccc(Cl)cc12 [Compound 103, 8-chloro-5-oxo-N-phenyl-1-thioxo-4,5-dihydro-1H-thiazolo[3,4-a]quinazoline-3-carboxamide] |  | 1.56 |  |  | 
7 | O=C(Nc1ccccc1)c1sc(=S)n2c1[nH]c(=O)c1ccc(Br)cc12 [Compound 104, 8-bromo-5-oxo-N-phenyl-1-thioxo-4,5-dihydro-1H-thiazolo[3,4-a]quinazoline-3-carboxamide] |  | 1.25 |  |  | 
8 | Cc1ccc2c(c1)c(=O)[nH]c1c(C(=O)Nc3ccccc3)sc(=S)n12 [Compound 105, 7-methyl-5-oxo-N-phenyl-1-thioxo-4,5-dihydro-1H-thiazolo[3,4-a]quinazoline-3-carboxamide] | 0.32 | 1.16 |  |  | 
9 | O=C(Nc1ccccc1)c1sc(=S)n2c1[nH]c(=O)c1cc(Cl)ccc12 [Compound 106, 7-chloro-5-oxo-N-phenyl-1-thioxo-4,5-dihydro-1H-thiazolo[3,4-a]quinazoline-3-carboxamide] | 0.38 | 1.18 |  |  | 
10 | O=C(Nc1ccccc1)c1sc(=S)n2c1[nH]c(=O)c1cc(Br)ccc12 [Compound 107, 7-bromo-5-oxo-N-phenyl-1-thioxo-4,5-dihydro-1H-thiazolo[3,4-a]quinazoline-3-carboxamide] | 5.51 | 3.83 | 12.3 µM |  | 
11 | Cc1ccccc1NC(=O)c1sc(=S)n2c1[nH]c(=O)c1cc(Br)ccc12 [Compound 201, 7-bromo-5-oxo-1-thioxo-N-(o-tolyl)-4,5-dihydro-1H-thiazolo[3,4-a]quinazoline-3-carboxamide] | 9.40 | 3.68 | 4.6 µM |  | 
12 | Cc1ccc(NC(=O)c2sc(=S)n3c2[nH]c(=O)c2cc(Br)ccc23)cc1 [Compound 203, 7-bromo-5-oxo-1-thioxo-N-(p-tolyl)-4,5-dihydro-1H-thiazolo[3,4-a]quinazoline-3-carboxamide] | 0.71 | 1.41 |  |  | 
13 | COc1cccc(NC(=O)c2sc(=S)n3c2[nH]c(=O)c2cc(Br)ccc23)c1 [Compound 204, 7-bromo-N-(3-methoxyphenyl)-5-oxo-1-thioxo-4,5-dihydro-1H-thiazolo[3,4-a]quinazoline-3-carboxamide] | 6.00 | 3.35 | 6.6 µM |  | 
14 | O=C(Nc1cccc(O)c1)c1sc(=S)n2c1[nH]c(=O)c1cc(Br)ccc12 [Compound 205, 7-bromo-N-(3-hydroxyphenyl)-5-oxo-1-thioxo-4,5-dihydro-1H-thiazolo[3,4-a]quinazoline-3-carboxamide] | 4.03 | 4.88 | 11.2 µM |  | 
15 | O=C(Nc1cccc(F)c1)c1sc(=S)n2c1[nH]c(=O)c1cc(Br)ccc12 [Compound 206, 7-bromo-N-(3-fluorophenyl)-5-oxo-1-thioxo-4,5-dihydro-1H-thiazolo[3,4-a]quinazoline-3-carboxamide] | 12.55 | 2.85 | 1.14 µM | significant improvement | 
16 | O=C(Nc1cccc(Cl)c1)c1sc(=S)n2c1[nH]c(=O)c1cc(Br)ccc12 [Compound 207, 7-bromo-N-(3-chlorophenyl)-5-oxo-1-thioxo-4,5-dihydro-1H-thiazolo[3,4-a]quinazoline-3-carboxamide] | 16.12 | 3.56 | 4.85 µM |  | 
17 | O=C(Nc1cccc(OC(F)(F)F)c1)c1sc(=S)n2c1[nH]c(=O)c1cc(Br)ccc12 [Compound 209, 7-bromo-5-oxo-1-thioxo-N-(3-(trifluoromethoxy)phenyl)-4,5-dihydro-1H-thiazolo[3,4-a]quinazoline-3-carboxamide] | 14.78 | 4.37 | 3.82 µM |  | 
18 | O=C(Nc1cc(C(F)(F)F)cc(C(F)(F)F)c1)c1sc(=S)n2c1[nH]c(=O)c1cc(Br)ccc12 [Compound 210, N-(3,5-bis(trifluoromethyl)phenyl)-7-bromo-5-oxo-1-thioxo-4,5-dihydro-1H-thiazolo[3,4-a]quinazoline-3-carboxamide] | 2.08 | 2.28 | 17.3 µM |  | 
19 | FC(F)(F)c1cc(NC(=S)Nc2ccc(Br)cc2-c2nn[nH]n2)cc(C(F)(F)F)c1 [NS11021, reference compound] | 1.63 | 1.86 | 14.9 µM and 14.3 µM |  | significant activation effects
20 | C=C(C)[C@H](CC=C(C)C)Cc1c(O)cc(OC)c2c1O[C@H](c1ccc(O)cc1O)CC2=O [kurarinone, reference compound] |  |  |  |  | significant activation effects
21 | CC(=O)c1c(O)c(C)c(O)c(Cc2c(O)c3c(c(C(=O)/C=C/c4ccccc4)c2O)OC(C)(C)C=C3)c1O [rottlerin, reference compound] |  |  |  |  | significant activation effects
